Laboratory results: patent US20150141435A1, “2-PYRIDONE ANTIMICROBIAL COMPOSITIONS” (Emergent BioSolutions, priority 2010, published 2015)
Converted amounts (≈) assume the structure as drawn. Counter-ions that a name gives are not always drawn. Like-named read-outs stand apart in the source and are kept apart here.

Key:
Assay type in all cases: cell-based
[1] = test system: S. aureus BAA-1720 (MRSA, FQ-R); experiment: MIC, CLSI broth microdilution (Table 1); conditions: Staphylococcus aureus, read-out: MIC S. aureus BAA-1720 (MRSA, FQ-R)
[2] = test system: Bacillus anthracis Ames strain; experiment: microbe, parasite or virus in culture
[3] = test system: S. pneumonia ATCC 49619; experiment: MIC, CLSI broth microdilution (Table 1); conditions: Streptococcus pneumoniae
[4] = test system: E. faecalis ATCC 29212; experiment: MIC, CLSI broth microdilution (Table 1); conditions: Enterococcus faecalis
[5] = test system: Burkholderia mallei ATCC 23344; experiment: microbe, parasite or virus in culture; conditions: ATCC23344
[6] = test system: Brucella abortus ATCC 23448; experiment: microbe, parasite or virus in culture; conditions: ATCC23448
[7] = test system: S. maltophilia ATCC 17677; experiment: MIC, CLSI broth microdilution (Table 2); conditions: Stenotrophomonas maltophilia
[8] = test system: E. coli ATCC 25922; experiment: MIC, CLSI broth microdilution (Table 2); conditions: Escherichia coli
[9] = test system: Yersinia pestis C092; experiment: microbe, parasite or virus in culture
[10] = test system: Burkholderia pseudomallei ATCC 23343; experiment: microbe, parasite or virus in culture; conditions: ATCC23343
[11] = test system: S. aureus ATCC 43300 (MRSA, FQ-S); experiment: MIC, CLSI broth microdilution (Table 1); conditions: Staphylococcus aureus, read-out: MIC S. aureus ATCC 43300 (MRSA, FQ-S)
[12] = test system: A. baumannii ATCC 19606; experiment: MIC, CLSI broth microdilution (Table 2); conditions: Acinetobacter baumannii
[13] = test system: E. faecium ATCC 19434; experiment: MIC, CLSI broth microdilution (Table 1); conditions: Enterococcus faecium
[14] = test system: P. aeruginosa ATCC 27853; experiment: MIC, CLSI broth microdilution (Table 2); conditions: Pseudomonas aeruginosa
[15] = test system: H. influenzae ATCC 49247; experiment: MIC, CLSI broth microdilution (Table 2); conditions: Haemophilus influenzae
[16] = test system: K. pneumoniae ATCC 33495; experiment: MIC, CLSI broth microdilution (Table 2); conditions: Klebsiella pneumoniae
[17] = test system: S. aureus ATCC 25923; experiment: MIC, CLSI broth microdilution (Table 1); conditions: Staphylococcus aureus
[18] = test system: Francisella tularensis Schu S4; experiment: microbe, parasite or virus in culture; conditions: SCHUS4
[19] = test system: Burkholderia cepacia (5 strains); experiment: MIC range, broader panel incl. clinical isolates (Table 4)
[20] = test system: Staphylococcus aureus (16 strains); experiment: MIC range, broader panel incl. clinical isolates (Table 3)
[21] = ATCC49619, read-out: MIC S. pneumonia ATCC 49619
[22] = ATCC29212, read-out: MIC E. faecalis ATCC 29212
[23] = ATCC17677, read-out: MIC S. maltophilia ATCC 17677
[24] = ATCC25922, read-out: MIC E. coli ATCC 25922
[25] = ATCC19606, read-out: MIC A. baumannii B. ATCC 19606
[26] = ATCC19434, read-out: MIC E. faecium ATCC 19434
[27] = ATCC27853, read-out: MIC P. aeruginosa ATCC 27853
[28] = ATCC49247, read-out: MIC H. influenzae ATCC 49247
[29] = ATCC33495, read-out: MIC K. pneumoniae ATCC 33495
[30] = ATCC25923, read-out: MIC S. aureus ATCC 25923
[31] = Gram positive, MHB, 37° C., 16-20 hours
[32] = ATCC49619, Gram positive, MHB, 37° C., 16-20 hours, read-out: MIC S. pneumonia ATCC 49619
[33] = ATCC17677, Gram negative, MHB, 37° C., 16-20 hours, read-out: MIC S. maltophilia ATCC 17677
[34] = ATCC25922, Gram negative, MHB, 37° C., 16-20 hours, read-out: MIC E. coli ATCC 25922
[35] = ATCC19606, Gram negative, MHB, 37° C., 16-20 hours, read-out: MIC A. baumannii B. ATCC 19606
[36] = ATCC19434, Gram positive, MHB, 37° C., 16-20 hours, read-out: MIC E. faecium ATCC 19434
[37] = ATCC49247, Gram negative, MHB, 37° C., 16-20 hours, read-out: MIC H. influenzae ATCC 49247

Compound: Cc1c(-c2ccc(CN)cc2)ccn2c(=O)c(C(=O)O)cc(C3CC3)c12 [Example 31 K salt, 8-(4-(aminomethyl)-phenyl)-1-cyclopropyl-9-methyl-4-oxo-4H-quinolizine-3-carboxylic acid]
- MIC [1]: 1 µg/mL
- MIC [2]: 0.016 to 0.031 µg/mL
- MIC [3, 21]: 0.125 µg/mL
- MIC [4, 22]: 0.25 µg/mL
- MIC [5]: 0.5 to 1 µg/mL
- MIC [6]: 0.25 µg/mL
- MIC [7, 23]: 0.125 µg/mL
- MIC [8, 24]: 0.032 µg/mL
- MIC [9]: 0.25 µg/mL
- MIC [10]: 1 µg/mL
- MIC [11]: 0.032 µg/mL
- MIC [12, 25]: 0.25 µg/mL
- MIC [13, 26]: 2 µg/mL
- MIC [14, 27]: 1 µg/mL
- MIC [15, 28]: 0.016 µg/mL
- MIC [16, 29]: 0.125 to 0.25 µg/mL
- MIC [17, 30]: 0.064 µg/mL
- MIC [18]: 0.125 to 0.5 µg/mL

Compound: Cc1c(-c2ccc(N)nc2)ccn2c(=O)c(C(=O)O)cc(C3CC3)c12 [Example 21 K salt, 8-(6-amino-pyridin-3-yl)-1-cyclopropyl-9-methyl-4-oxo-4H-quinolizine-3-carboxylic acid]
- MIC [1]: 0.25 µg/mL
- MIC [2]: 0.016 µg/mL
- MIC [3, 21]: 0.032 µg/mL
- MIC [4, 22]: 0.032 µg/mL
- MIC [5]: 0.125 to 0.25 µg/mL
- MIC [6]: 0.063 µg/mL
- MIC [7, 23]: 0.125 µg/mL
- MIC [8, 24]: 0.016 to 0.032 µg/mL
- MIC [9]: 0.031 µg/mL
- MIC [10]: 0.25 to 0.5 µg/mL
- MIC [11]: 0.008 µg/mL
- MIC [12, 25]: 0.064 to 0.125 µg/mL
- MIC [13, 26]: 0.5 µg/mL
- MIC [14, 27]: 1 to 2 µg/mL
- MIC [15, 28]: ≤ 0.004 µg/mL
- MIC [16, 29]: 0.064 µg/mL
- MIC [17, 30]: 0.008 µg/mL
- MIC [18]: 0.031 µg/mL

Compound: Cc1c(-c2cc(N)cc(F)c2)ccn2c(=O)c(C(=O)O)cc(C3CC3)c12 [Example 9 K salt, 8-(3-amino-5-fluoro-phenyl)-1-cyclopropyl-9-methyl-4-oxo-4H-quinolizine-3-carboxylic acid]
- MIC [1, 31]: 0.25 µg/mL
- MIC [2]: 0.008 µg/mL
- MIC [3, 32]: 0.064 µg/mL
- MIC ([4]; ATCC29212, Gram positive, MHB, 37° C., 16-20 hours, read-out: MIC E. faecalis ATCC 29212): 0.032 µg/mL
- MIC [5]: 0.125 to 0.25 µg/mL
- MIC [6]: 0.063 µg/mL
- MIC [7, 33]: 0.25 µg/mL
- MIC [8, 34]: 0.064 µg/mL
- MIC [9]: 0.031 µg/mL
- MIC [10]: 0.25 µg/mL
- MIC [11, 31]: 0.008 µg/mL
- MIC [12, 35]: 0.125 µg/mL
- MIC [13, 36]: 0.5 µg/mL
- MIC ([14]; ATCC27853, Gram negative, MHB, 37° C., 16-20 hours, read-out: MIC P. aeruginosa ATCC 27853): 2 µg/mL
- MIC [15, 37]: 0.008 µg/mL
- MIC [16, 29]: 0.125 to 0.25 µg/mL
- MIC ([17]; ATCC25923, Gram positive, MHB, 37° C., 16-20 hours, read-out: MIC S. aureus ATCC 25923): 0.008 µg/mL
- MIC [18]: 0.016 µg/mL

Compound: Cc1c(C2=CCNCC2)ccn2c(=O)c(C(=O)O)cc(C3CC3)c12 [Example 42, 1-cyclopropyl-9-methyl-4-oxo-8-(1,2,3,6-tetrahydropyridin-4-yl)-4H-quinolizine-3-carboxylic acid]
- MIC [1, 31]: > 8 µg/mL
- MIC [2]: 0.25 µg/mL (≈ 0.771 µM)
- MIC [3, 32]: 2 µg/mL (≈ 6.17 µM)
- MIC [5]: 2 µg/mL (≈ 6.17 µM)
- MIC [7, 33]: 1 µg/mL (≈ 3.08 µM)
- MIC [8, 34]: 0.064 µg/mL (≈ 0.197 µM)
- MIC Range High, Burkholderia cepacia (5 strains) ([19]; High of 5 strains): 2 µg/mL (≈ 6.17 µM)
- MIC Range Low, Burkholderia cepacia (5 strains) ([19]; Low of 5 strains): 2 µg/mL (≈ 6.17 µM)
- MIC Range Median, Burkholderia cepacia (5 strains) ([19]; Median of 5 strains): 2 µg/mL (≈ 6.17 µM)
- MIC [9]: 0.5 to 1 µg/mL (≈ 1.54 to 3.08 µM)
- MIC [10]: 4 µg/mL (≈ 12.3 µM)
- MIC [12, 35]: 2 µg/mL (≈ 6.17 µM)
- MIC [13, 36]: > 8 µg/mL
- MIC [15, 37]: 0.064 µg/mL (≈ 0.197 µM)
- MIC ([16]; ATCC33495, Gram negative, MHB, 37° C., 16-20 hours, read-out: MIC K. pneumoniae ATCC 33495): 0.125 µg/mL (≈ 0.385 µM)
- MIC Range High, Staphylococcus aureus (16 strains) ([20]; High of 16 strains): 32 µg/mL (≈ 98.6 µM)
- MIC Range Low, Staphylococcus aureus (16 strains) ([20]; Low of 16 strains): 0.5 µg/mL (≈ 1.54 µM)
- MIC Range Median, Staphylococcus aureus (16 strains) ([20]; Median of 16 strains): 16.25 µg/mL (≈ 50.1 µM)
- MIC [18]: 0.25 to 0.5 µg/mL (≈ 0.771 to 1.54 µM)

Compound: Cc1c(-c2ccc3[nH]ncc3c2)ccn2c(=O)c(C(=O)O)cc(C3CC3)c12 [Example 23 K salt, 1-cyclopropyl-8-(1H-indazol-5-yl)-9-methyl-4-oxo-4H-quinolizine-3-carboxylic acid]
- MIC [1]: 0.125 µg/mL
- MIC [2]: 0.004 µg/mL
- MIC [3, 21]: 0.064 µg/mL
- MIC [4, 22]: 0.008 µg/mL
- MIC [5]: 0.063 µg/mL
- MIC [6]: 0.016 µg/mL
- MIC [7, 23]: 0.064 µg/mL
- MIC [8, 24]: 0.032 µg/mL
- MIC [9]: 0.016 to 0.031 µg/mL
- MIC [10]: 0.063 µg/mL
- MIC [11]: ≤ 0.004 µg/mL
- MIC [12, 25]: 0.125 µg/mL
- MIC [13, 26]: 0.25 µg/mL
- MIC [14, 27]: 2 µg/mL
- MIC [15, 28]: ≤ 0.004 µg/mL
- MIC [16, 29]: 0.125 µg/mL
- MIC [17, 30]: ≤ 0.004 µg/mL
- MIC [18]: 0.016 µg/mL
